“Also recorded” adds a separate entry of the source.
Experiments:
finger scratch bleeding = assay: finger scratched to bleed, substance applied to bleeding site; format: in vivo, human; conditions: for black blood coagulation / black color formation: derivatives in powder or gel or liquid form; for stopping of bleeding: powder or gel or liquid form
Source text: Myself, finger little scratched, slightly bleeds.

[1] = tested on: massive bleeding of femoral artery; assay: femoral artery bleeding in rat, powder poured topically; format: in vivo
Experimental: Sufficient composition comprising powdered D,L-threo-hex-2-enono-1,4-lactone and excipients stops massive bleeding of femoral artery on contact when femoral artery of a rat is cut off In this case of artery on contact when femoral artery of a rat is cut off. In this case of artery bleeding, it is administered topically by pouring instead of spraying. […] Those white spots indicate the powder that is not yet mixed up with the blood. The gel forms first on the surface of the pond of blood, that stops the fluid moving. If stirring the blood to break through the surface film like structure that keeps the blood fluid from moving when the powder is insufficient, it will bleed again, but much slower than before pouring the powder into the bleeding area; adding sufficient powder into the blood, stirring makes the powder molecules well saturated with the hemoglobin and plasma protein molecules and thus forming the concentrated black gel like structure.

capillary bleeding = capillary bleeding in rat, one capillary cut off; format: in vivo
venous bleeding = assay: vein bleeding in rat, one vein cut off; format: in vivo
bleeding nostril = assay: nostril bleeding in rat; format: in vivo
gastric bleeding area = assay: bleeding area in rat after histamine-induced gastric acid secretion; format: in vivo; conditions: rat after histamine injection; topical to bleeding area
Source text: Thus this powder can treat the gastric ulcer bleeding when ingested orally.

[2] = tested on: surgical / dental bleeding; assay: clinical evidence: topical powder on surgical and dental bleeding in patients; format: in vivo, human; conditions: person
Experimental: Person, scalp tumor excision, massive bleeding when the tumor is excised.
Person, acute renal failure, A-V fistula formation operation, masive bleeding. The operation of stopping bleeding consists of combing the powder with pressing with gauzes. […] At the end of the operation, most of black blood coagulation is wiped out with 4×4 gauze, and rinsed with Ringer's solution. It takes totally 5 minutes to stop the bleeding completely, as the surgeon keeps wiping away the coagulation. The patient's conditions are particularly well, better than without using this powder.
Person, skin contracture on the palm, which needs to be removed, and it requires skin graft. When the skin graft is removed from the hand, massive bleeding occurs. On applying sufficient powder to the bleeding area topically, it appears black coagulation on contact. […] Those that appears more black area indicate the more powder mixed up with the blood. Suture going on.
Person, paraanal excision, bleeding when it is opened up. […] Those that appears white are the powder that are not mixed up with the blood. Suture going on.
Person, paranal abscess Excision, massive bleeding when it is opened. […] The white color is the powder instantly not mixed up with the blood yet. Lastly, insert the long gauze into the anus.
Person, chronic hepatitis, has bleeding tendency, extraction of teeth causes massive bleeding.

human blood = assay: test tube black blood coagulation of human blood
Source text: The present invention is directed to a method for stopping bleeding, comprising administering powdered D,L-threo-hex-2-enono-1,4-lactone tablets thereof to the wound site in an amount of 0.1568 grams for every milliliter of blood. This powder has a very potent coagulation action to stop bleeding when spraying topically on the bleeding area for any normal or diseased patients. When the powder comes in contact with the blood, the black tar like material is formed, and later becomes solid. The amount of the powder that is needed to react completely with the blood is proportional to the amount of the blood that comes out of the blood vessels. […] The artery bleeding needs much more this powder of interest. […] This is the same for normal, colon cancer and hemophilia patients; 1 ml of normal blood needs 0.1568 grams of D,L-threo-hex-2-enono-1,4-lactone powder, 1 ml of colon cancer needs 0.1568 grams of D,L-threo-hex-2-enono-1,4-lactone, 1 ml of hemophilia blood needs 0.1568 grams of D,L-threo-hex-2-enono-1,4-lactone. Sufficient powdered D,L-threo-hex-2-enono-1,4-lactone is particularly useful to stop bleeding in the case of diffuse capillary oozing and mistakenly cut off artery or arteries that can not be found during massive bleeding so as to save the patients's lives therefor. When D,L-threo-hex-2-enono-1,4-lactone is absorbed into the system, it is good for health by making the leucocytes stronger and slowing the aging process etc. However, at the end of operation before closure, the excessive black tar gel like material can be wiped away with Ringer's solution. Normal, liver Disease, Colon Cancer and Hemophilia Blood When tested in the tube, 1 milliliter of human blood requires 0.1568 grams of a composition comprising powdered D,L-threo-hex-2-enono-1,4-lactone to form black blood coagulation by shaking the tube with hand or stirrer machine. It takes 6 minutes to cause the black blood coagulation unmobile in the test tube for normal, liver diseases, colon cancer and hemophilia blood respectively.

O=C1OC(C(O)CO)C(O)=C1OC(=O)c1ccccc1 [D,L-threo-hex-2-enono-1,4-lactone-2-benzoate]
black blood coagulation / black color formation (finger scratch bleeding): the black blood coagulation was formed
stopping of bleeding (finger scratch bleeding): bleeding was stopped on contact

CCCCCCCCCCCCCCCC(=O)OCC(O)C1OC(=O)C(O)=C1O [D,L-threo-hex-2-enono-1,4-lactone-6-palimitate]
black blood coagulation / black color formation (finger scratch bleeding): the black blood coagulation was formed
stopping of bleeding (finger scratch bleeding): bleeding was stopped on contact

O=C1OC(C(O)CO)C(O)=C1O [D,L-threo-hex-2-enono-1,4-lactone]
bleeding after sticky tar like structure is wiped away ([1]; after 5-6 minutes): no bleeding at all
formation of black tar like material ([1]; as soon as powder contacts the blood): formed in one second
time to stop bleeding ([1]; rat femoral artery bleeding, sufficient powder): within one second
amount of powder usually sufficient to stop bleeding ([1]; rat femoral artery cut off, poured topically, amount varies with rats): 0.1344 grams
bleeding after adding the powder (capillary bleeding; after 1 minute from adding the powder): no more bleeding at all
stopping of bleeding (capillary bleeding; rat, one capillary bleeding): stops the bleeding on contact; also recorded: within one second
amount of powder that stops bleeding (capillary bleeding; rat, one capillary cut off): about 0.0112 grams
bleeding after black coagulation is wiped away (venous bleeding; about 1½ minutes after wiping away): no more bleeding
amount of powder needed to stop bleeding (venous bleeding; rat, one vein cut off): about 0.0224 grams
stopping of bleeding (venous bleeding; rat, one venous bleeding): stop bleeding on contact; also recorded: within one second
amount of powder applied that stops bleeding (bleeding nostril; rat nostril cut slightly): 0.0037 grams
stopping of bleeding (bleeding nostril; rat nostril, 0.0037 grams): the bleeding stops on contact
black coagulation formation (gastric bleeding area): the black coagulation formed, but slower than normal
time to stop the bleeding completely ([2]; A-V fistula plasty, acute renal failure, powder plus gauze pressing, coagulation repeatedly wiped away): 5 min
stopping of bleeding ([2]; extraction of teeth, chronic hepatitis, bleeding tendency): the bleeding in the socket stops on contact
stopping of bleeding ([2]; extraction of tooth): the bleeding stops on contact
persistence of stopped bleeding after wiping out black coagulation ([2]; extraction of tooth, wiped out in 10 seconds): stopped bleeding still persisted
black blood coagulation formation ([2]; paraanal abscess excision, massive bleeding, sprayed): the black color is formed on contact
stopping of bleeding ([2]; paraanal abscess excision, sprayed): it stops bleeding by forming black blood coagulation on contact
stopping of bleeding ([2]; scalp tumor excision, massive bleeding, sprayed): the bleeding atops on contact
stopping of bleeding ([2]; skin contracture excision with skin graft, massive bleeding): Bleeding stops at the same time as the black coagulation forms
black blood coagulation / black color formation (finger scratch bleeding): the black color forms on contact
time after which mixture does not move by shaking or pouring (human blood; 0.1568 grams per 1 ml normal or diseased human blood): 6 min
time to cause black blood coagulation unmobile in the test tube (human blood; colon cancer blood): 6 min
time to cause black blood coagulation unmobile in the test tube (human blood; hemophilia blood): 6 min
time to cause black blood coagulation unmobile in the test tube (human blood; liver diseases blood): 6 min
time to cause black blood coagulation unmobile in the test tube (human blood; normal blood): 6 min
amount needed (human blood; per 1 ml of colon cancer blood): 0.1568 grams
amount needed (human blood; per 1 ml of hemophilia blood): 0.1568 grams
amount needed (human blood; per 1 ml of normal blood): 0.1568 grams
amount required to form black blood coagulation (human blood; per 1 ml of normal or diseased human blood, test tube): 0.1568 grams

O=C1OC(C(O)CO)C(O)=C1OP(=O)(O)O [D,L-threo-hex-enono-1,4-lactone-2-phosphate]
black blood coagulation / black color formation (finger scratch bleeding): the black blood coagulation was formed
stopping of bleeding (finger scratch bleeding): bleeding was stopped on contact

D,L-threo-hex-2-enono-1,4-lactone-2-propane
black blood coagulation / black color formation (finger scratch bleeding): the black blood coagulation was formed
stopping of bleeding (finger scratch bleeding): bleeding was stopped on contact
